Laboratory results from US6929912B2 (priority 1998, dated 2005).
Where “and” joins values, the source holds several entries; their conditions need not be identical. Equal entries are not always repeated. Where two headings read alike, the source gives them in different places.

Columns and labels:
[1] = tested on: metastatic or inflammatory breast cancer; format: in vivo, human
breast cancer = settings: cited from earlier work

Structure (SMILES) | Survival >3 years: Yes ([1]; human, in vivo) | objective responses, patients (breast cancer; cyclophosphamide used alone) | objective responses, patients (breast cancer; cyclophosphamide used in combination regimens) | blood concentrations of CY on day 3 (patients carrying the CYP3A4 promoter -392 variant vs without, p=0.0247) | blood concentrations of CY on day 2 (patients carrying the CYP3A4 promoter -392 variant vs without, p=0.0260) | Apparent induction of CY metabolism (Day 3 exposure/Day 1 exposure) (patients carrying the CYP3A4 variant SNP vs without, p=0.0260) | blood concentrations of CY on day 2 (patients carrying the CYP3A5 promoter -147 variant vs without, p=0.0281) | concentrations of CY (patients with CYP3A4 B allele vs homozygous for the A allele, day not given) | Blood concentrations of CY (patients with CYP3A5 B alleles vs homozygous for the A allele, day not given) | chance of survival relative to patients homozygous for the A allele ([1]; CYP3A4 B allele patients) | Survival >3 years: Yes ([1]; CYP3A4 genotype AA (wildtype)) | Survival >3 years: Yes ([1]; CYP3A4 genotype AB or BB) | chance of survival relative to patients homozygous for the A allele ([1]; CYP3A5 B allele patients) | Survival >3 years: Yes ([1]; CYP3A5 genotype AA (wildtype)) | Survival >3 years: Yes ([1]; CYP3A5 genotype AB or BB)
O=NN(CCCl)C(=O)NCCCl [BCNU, 1,3-bis-(chloroethyl)-1-nitrosourea] | 55.6% and 29.7% |  |  |  |  |  |  |  |  |  |  |  |  |  | 
O=P1(N(CCCl)CCCl)NCCCO1 (stereo not drawn) [CY, cyclophosphamide] |  | about 35% | up to 90% | significantly higher | significantly higher | higher | significantly higher | higher | significantly higher | ⅓ | 46.6% | 15.4% | less than ⅓ | 48.2% | 14.3%
